pKi: −log10 of the molar value. Structures can show the parent of a compound that is named as a salt. Where two headings read alike, the source gives them in different places.
Key:
[1] = tested on: carrageenin-induced paw edema; assay: Carrageenin-induced paw edema model (in vivo); set-up: species or system C57BL/6J mice; conditions: mice, oral in olive oil 1 hour before carrageenin, paw volume 3 hours later
Description: [2] Carrageenin-induced paw edema model (in vivo)
C57BL/6J mice (6 to 8 weeks of age) were used. […] After one hour of the administration, 50 μl of 1% solution of carrageenin in normal saline was administered intradermally at foot pad of the right hind paw. Three hours later, the volume of the right hind paw was measured and compared with the initial volume.

[2] = biological target: T1, human central type cannabinoid receptor (hCB1) (Homo sapiens, UniProt P21554); assay: Binding assay (in vitro), [3H]Win55212-2 displacement, membrane fractions of human CB1-CHO; conditions: hCB1 expressed in CHO cells, [3H]Win55212-2 2 nM, 30° C. 90 minutes
T1 construct: expressed in transfected cells; host or cells: CHO cells
T1 sequence (P21554 whole entry): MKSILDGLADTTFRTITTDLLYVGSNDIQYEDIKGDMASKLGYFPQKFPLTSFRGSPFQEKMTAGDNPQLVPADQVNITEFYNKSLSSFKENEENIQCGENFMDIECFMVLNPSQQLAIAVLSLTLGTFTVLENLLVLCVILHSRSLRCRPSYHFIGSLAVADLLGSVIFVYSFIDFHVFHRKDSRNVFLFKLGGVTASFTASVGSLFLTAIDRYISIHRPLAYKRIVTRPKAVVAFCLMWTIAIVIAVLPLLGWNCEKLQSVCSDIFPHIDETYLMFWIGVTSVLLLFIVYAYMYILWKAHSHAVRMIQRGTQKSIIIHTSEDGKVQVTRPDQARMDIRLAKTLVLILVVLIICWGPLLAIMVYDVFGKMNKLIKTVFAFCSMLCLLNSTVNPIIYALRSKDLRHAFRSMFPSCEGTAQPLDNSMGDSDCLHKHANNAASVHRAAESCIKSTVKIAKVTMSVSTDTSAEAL

[3] = biological target: T2, human peripheral type cannabinoid receptor (hCB2) (Homo sapiens, UniProt P34972); assay: Binding assay (in vitro), [3H]Win55212-2 displacement, membrane fractions of human CB2-CHO; conditions: for pKi: hCB2 expressed in CHO cells, [3H]Win55212-2 2 nM, 30° C. 90 minutes; for C/S (Ki central type receptors / Ki peripheral type receptors): indicator of selectivity for peripheral type receptors
T2 construct: expressed in transfected cells; host or cells: CHO cells
T2 sequence (P34972 whole entry): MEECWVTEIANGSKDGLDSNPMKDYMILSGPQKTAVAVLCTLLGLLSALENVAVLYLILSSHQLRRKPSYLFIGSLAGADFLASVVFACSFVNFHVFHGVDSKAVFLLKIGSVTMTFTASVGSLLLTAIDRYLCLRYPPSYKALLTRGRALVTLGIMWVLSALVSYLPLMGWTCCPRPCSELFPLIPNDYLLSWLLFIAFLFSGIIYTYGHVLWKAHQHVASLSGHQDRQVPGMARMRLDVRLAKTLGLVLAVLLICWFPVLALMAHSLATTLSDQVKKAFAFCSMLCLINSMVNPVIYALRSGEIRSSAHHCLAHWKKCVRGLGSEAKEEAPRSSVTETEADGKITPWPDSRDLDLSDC

[4] = read-out: Ki value Central type receptor (C)
[5] = Ki value Peripheral type receptor (S)
[6] = Ki value Central type receptor (C)
[7] = read-out: Ki value Peripheral type receptor (S)

| pKi [3, 7] | Structure (SMILES) | ED50 [1] | pKi [2, 4] | pKi [3, 5] | C/S (Ki central type receptors / Ki peripheral type receptors) [3] | C/S (Ki central type receptors / Ki peripheral type receptors) ([3]; hydrochloride) | pKi [2, 6] | ED60 [1] |
| --- | --- | --- | --- | --- | --- | --- | --- | --- |
|  | CCCCCOc1c(OC)ccc2cc(C(=O)NCc3ccc4c(c3)OCO4)c(=O)[nH]c12 [Example 3-5, 7-Methoxy-2-oxo-8-pentyloxy-1,2-dihydroquinoline-3-carboxylic acid (3,4-methylenedioxybenzyl)amide] | <0.10 mg/kg; p.o. | 5.46 |  |  |  |  |  |
|  | CCCCCOc1c(OC)ccc2cc(C(=O)NCc3ccncc3)c(=O)[nH]c12 [Example 3-9, 7-methoxy-2-oxo-8-pentyloxy-1,2-dihydroquinoline-3-carboxylic acid (4-pyridyl methyl)amide] | 0.58 mg/kg; p.o. |  |  |  |  |  |  |
|  | CCCCCOc1c(OC)ccc2cc(C(=O)NCCN3CCOCC3)c(=O)[nH]c12 [Example 3-11, 7-methoxy-2-oxo-8-pentyloxy-1,2-dihydroquinoline-3-carboxylic acid (2-morpholinoethyl)amide] | 0.40 mg/kg; p.o. |  |  |  |  |  |  |
|  | CCCCOc1c(OC)ccc2cc(C(=O)NCCc3ccc(F)cc3)c(=O)[nH]c12 [Example 3-15, 8-butoxy-7-methoxy-2-oxo-1,2-dihydroquinoline-3-carboxylic acid [2-(4-fluorophenyl)ethyl]amide] | 0.41 mg/kg; p.o. | 6.60 | 10.80 | 15580 |  |  |  |
|  | CCCCOc1c(OC)ccc2cc(C(=O)NCCc3ccncc3)c(=O)[nH]c12 [Example 3-17, 8-butoxy-7-methoxy-2-oxo-1,2-dihydroquinoline-3-carboxylic acid (2-pyridine-4-ylethyl)amide hydrochloride] | 1.39 mg/kg; p.o. | 6.70 | 9.64 |  | 867 |  |  |
|  | CCCCCOc1c(OC)ccc2cc(C(=O)NCCc3ccc(Cl)cc3)c(=O)[nH]c12 [Example 3-22, 7-methoxy-2-oxo-8-pentyloxy-1,2-dihydroquinoline-3-carboxylic acid [2-(4-chlorophenyl)ethyl]amide] | 0.76 mg/kg; p.o. |  | 9.70 | 675 |  | 6.87 |  |
| 9.64 | CCCOc1c(OC)ccc2cc(C(=O)NCCc3ccncc3)c(=O)[nH]c12 [Example 3-26, 7-methoxy-2-oxo-8-propoxy-1,2-dihydroquinoline-3-carboxylic acid (2-pyridine-4-ylethyl)amide] |  | 6.19 |  | 2817 |  |  | 1.32 mg/kg; p.o. |
| 10.68 | CCCOc1c(OC)ccc2cc(C(=O)NCCc3ccc(F)cc3)c(=O)[nH]c12 [Example 3-27, 7-methoxy-2-oxo-8-propoxy-1,2-dihydroquinoline-3-carboxylic acid [2-(4-fluorophenyl)ethyl]amide] |  | 6.47 |  | 15990 |  |  | 0.53 mg/kg; p.o. |
|  | CCCOc1c(OC)ccc2cc(C(=O)NCCc3ccccc3)c(=O)[nH]c12 [Example 3-30, 7-methoxy-2-oxo-8-propoxy-1,2-dihydroquinoline-3-carboxylic acid (2-phenylethyl)amide] |  |  | 10.05 | 1862 |  |  | 0.49 mg/kg; p.o. |
|  | CCCCCOc1c(OC)ccc2cc(C(=O)NCCc3ccncc3)c(=O)n(C)c12 [Example 3-37, 1-methyl-7-methoxy-2-oxo-8-pentyloxy-1,2-dihydroquinoline-3-carboxylic acid (2-pyridine-4-ylethyl)amide] |  |  | 9.12 | 104 |  | 7.11 | 0.63 mg/kg; p.o. |
|  | CCCCCOc1c(OC)ccc2cc(C(=O)NCCN3CCOCC3)c(=O)n(C)c12 [Example 3-38, 1-methyl-7-methoxy-2-oxo-8-pentyloxy-1,2-dihydroquinoline-3-carboxylic acid (2-morpholinoethyl) amide] |  | 6.03 | 10.07 | 11002 |  |  | 2.24 mg/kg; p.o. |
|  | CCCCCOc1c(OC)ccc2cc(C(=O)NCc3ccc(F)cc3)c(=O)n(C)c12 [Example 3-40, 1-methyl-7-methoxy-2-oxo-8-pentyloxy-1,2-dihydroquinoline-3-carboxylic acid (4-fluorobenzyl)amide] |  | 6.15 | 8.67 | 330 |  |  | 1.19 mg/kg; p.o. |
|  | CCCCCOc1cc2cc(C(=O)NCc3ccc4c(c3)OCO4)c(=O)n(C)c2cc1OC [Example 3-45, 1-methyl-7-methoxy-2-oxo-6-pentyloxy-1,2-dihydroquinoline-3-carboxylic acid (3,4-methylenedioxybenzyl)amide] |  | 6.42 | 10.49 | 11902 |  |  |  |
|  | CCCCCOc1ccc2cc(C(=O)NCCc3ccc(F)cc3)c(=O)[nH]c2c1OCCCCC [Example 3-46, 7,8-dipentyloxy-2-oxo-1,2-dihydroquinoline-3-carboxylic acid [2-(4-fluorophenyl)ethyl]amide] |  |  | 10.59 | 8776 |  | 6.64 |  |
| 10.26 | CCOc1c(OC)ccc2cc(CO)c(=O)[nH]c12 [Example 5-2, 8-ethoxy-3-hydroxymethyl-7-methoxy-2-oxo-1,2-dihydroquinoline] |  | 6.91 |  | 2219 |  |  |  |
| 10.47 | CCOc1c(OC)ccc2cc(COC(=O)Nc3ccncc3)c(=O)[nH]c12 [Example 6-2, N-pyridine-4-ylcarbamic acid (8-ethoxy-7-methoxy-2-oxo-1,2-dihydroquinoline-3-yl)methyl ester] |  | 6.36 |  | 12866 |  |  |  |
| 9.77 | CCOc1c(OC)ccc2cc(CN(C)C)c(=O)[nH]c12 [Example 7-1, 3-dimethyl aminomethyl-8-ethoxy-7-methoxy-2-oxo-1,2-dihydroquinoline] |  | 5.44 |  | 21432 |  |  |  |
| 10.21 | CCOc1c(OC)ccc2cc(CN3CCOCC3)c(=O)[nH]c12 [Example 7-3, 8-ethoxy-7-methoxy-3-morpholinomethyl-2-oxo-1,2-dihydroquinoline] |  | 6.18 |  | 10735 |  |  |  |
|  | CCCCOc1c(OC)ccc2cc(CNC(=O)Cc3ccc(O)cc3)c(=O)[nH]c12 [Example 8-2, N-[(8-butoxy-7-methoxy-2-oxo-1,2-dihydroquinoline-3-yl)methyl]-(4-hydroxyphenyl)acetamide] |  | 6.14 | 9.57 | 2692 |  |  |  |

| Structure (SMILES) | pKi [3, 7] | ED50 [1] | pKi [2, 4] | pKi [3, 5] | C/S (Ki central type receptors / Ki peripheral type receptors) [3] | C/S (Ki central type receptors / Ki peripheral type receptors) ([3]; hydrochloride) | pKi [2, 6] | ED60 [1] |
| --- | --- | --- | --- | --- | --- | --- | --- | --- |
| CCCCOc1c(OC)ccc2cc(CO)c(=O)[nH]c12 [Example 5-1, 8-butoxy-3-hydroxy methyl-7-methoxy-2-oxo-1,2-dihydroquinoline] | 9.35 |  | 6.16 |  |  |  |  |  |
| CCCCOc1c(OC)ccc2cc(COC(=O)Nc3ccc(F)cc3)c(=O)[nH]c12 [Example 6-1, N-(4-fluorophenyl)carbamic acid (8-butoxy-7-methoxy-2-oxo-1,2-dihydroquinoline-3-yl)methyl ester] | 10.35 |  | 6.15 |  | 15612 |  |  |  |
| CCCCOc1c(OC)ccc2cc(CNC(=O)Nc3ccc(F)cc3)c(=O)[nH]c12 [Example 8-1, N-[(8-butoxy-7-methoxy-2-oxo-1,2-dihydroquinoline-3-yl)methyl]-N′-(4-fluorophenyl)urea] | 9.36 |  | 6.36 |  | 1000 |  |  |  |

— US6806276B2, “2-oxoquinoline compounds and pharmaceutical uses thereof” (Japan Tobacco Inc., priority 1999, dated 2004)
